Assay results taken from patent US7351706B2, “Indol-3-yl-carbonyl-spiro-piperidine derivatives” (Hoffmann-La Roche Inc., priority 2006, dated 2008).

Target: T1, human V1a receptor (Homo sapiens, UniProt P37288)
T1 construct: expressed in transfected cells; host or cells: HEK293 cells, transiently transfected; membranes prepared
Test: human V1a receptor binding (3H-Vasopressin SPA, HEK293 membranes)
Settings: 3H-Vasopressin displacement, membranes of HEK293 cells transiently transfected with human V1a; Ki by Cheng-Prussoff
Procedure: The human V1a receptor was cloned by RT-PCR from total human liver RNA. The coding sequence was subcloned in an expression vector after sequencing to confirm the identity of the amplified sequence. […] Cell membranes were prepared from HEK293 cells transiently transfected with the expression vector and grown in 20 liter fermenters with the following protocol.
50 g of cells are resuspended in 30 ml freshly prepared ice cold Lysis buffer (50 mM HEPES, 1 mM EDTA, 10 mM MgCl2 adjusted to pH=7.4+complete cocktail of protease inhibitor (Roche Diagnostics)). Homogenized with Polytron for 1 min and sonicated on ice for 2×2 minutes at 80% intensity (Vibracell sonicator). The preparation is centrifuged 20 min at 500 g at 4° C., the pellet is discarded and the supernatant centrifuged 1 hour at 43'000 g at 4° C. (19'000 rpm). The pellet is resuspended in 12.5 ml Lysis buffer+12.5 ml Sucrose 20% and homogenized using a Polytron for 1-2 min. The protein concentration is determined by the Bradford method and aliquots are stored at −80° C. until use. For binding studies 60 mg Yttrium silicate SPA beads (Amersham) are mixed with an aliquot of membrane in binding buffer (50 mM Tris, 120 mM NaCl, 5 mM KCl, 2 mM CaCl2, 10 mM MgCl2) for 15 minutes with mixing. 50 ul of bead/membrane mixture is then added to each well of a 96 well plate, followed by 50 ul of 4 nM 3H-Vasopressin (American Radiolabeled Chemicals). For total binding measurement 100 ul of binding buffer are added to the respective wells, for non-specific binding 100 ul of […] cold vasopressin and for compound testing 100 ul of a serial dilution of each compound in 2% DMSO. The plate is incubated 1 h at room temperature, centrifuged 1 min at 1000 g and counted on a Packard Top-Count. Non-specific binding counts are subtracted from each well and data is normalized to the maximum specific binding set at 100%. To calculate an IC 50 the curve is fitted using a non-linear regression model (XLfit) and the Ki is calculated using the Cheng-Prussoff equation.

T1 sequence (P37288 whole entry): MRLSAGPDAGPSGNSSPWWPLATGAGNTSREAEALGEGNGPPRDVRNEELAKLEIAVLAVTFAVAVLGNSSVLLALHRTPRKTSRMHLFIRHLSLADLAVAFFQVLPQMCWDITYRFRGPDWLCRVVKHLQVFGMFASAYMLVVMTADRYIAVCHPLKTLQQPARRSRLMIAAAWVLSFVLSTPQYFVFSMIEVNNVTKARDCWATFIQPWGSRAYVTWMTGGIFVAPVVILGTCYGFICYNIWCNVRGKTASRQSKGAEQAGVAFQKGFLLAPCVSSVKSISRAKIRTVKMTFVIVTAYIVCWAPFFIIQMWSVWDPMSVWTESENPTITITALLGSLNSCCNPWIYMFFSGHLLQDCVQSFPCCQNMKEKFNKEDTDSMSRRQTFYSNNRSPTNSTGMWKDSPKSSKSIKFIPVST

| Ki [nM] | SMILES |
| --- | --- |
| 118 | O=C1Nc2ccccc2C2(CCN(C(=O)c3cn(C(=O)c4cccc(F)c4)c4cc(Cl)ccc34)CC2)O1 [Example 6, 1′-{[6-Chloro-1-(3-fluorobenzoyl)-1H-indol-3-yl]carbonyl}spiro[3,1-benzoxazine-4,4′-piperidin]-2(1H)-one] |
| 5.7 | CN(C)C(=O)Cn1cc(C(=O)N2CCC3(CC2)OC(=O)Nc2ccccc23)c2ccc(Cl)cc21 [Example 17, 2-{6-Chloro-3-[(2-oxo-1,2-dihydro-1′H-spiro[3,1-benzoxazine-4,4′-piperidin]-1′-yl)carbonyl]-1H-indol-1-yl}-N,N-dimethylacetamide] |
| 7 | O=C1Nc2ccccc2C2(CCN(C(=O)c3cn(CC(=O)c4cccc(F)c4)c4cc(Cl)ccc34)CC2)O1 [Example 12, 1′-({6-Chloro-1-[2-(3-fluorophenyl)-2-oxoethyl]-1H-indol-3-yl}carbonyl)spiro[3,1-benzoxazine-4,4′-piperidin]-2(1H)-one] |
| 7 | O=C1Nc2ccccc2C2(CCN(C(=O)c3cn(CC(=O)N4CCCCC4)c4cc(Cl)ccc34)CC2)O1 [Example 15, 1′-{[6-Chloro-1-(2-oxo-2-piperidin-1-ylethyl)-1H-indol-3-yl]carbonyl}spiro[3,1-benzoxazine-4,4′-piperidin]-2(1H)-one] |
| 88 | O=C1Nc2ccccc2C2(CCN(C(=O)c3cn(C(=O)c4cc(F)cc(F)c4)c4cc(Cl)ccc34)CC2)O1 [Example 21, 1′-{[6-Chloro-1-(3,5-difluorobenzoyl)-1H-indol-3-yl]carbonyl}spiro[3,1-benzoxazine-4,4′-piperidin]-2(1H)-one] |
| 20 | O=C1Nc2ccccc2C2(CCN(C(=O)c3cn(CC(=O)N4CCOCC4)c4cc(Cl)ccc34)CC2)O1 [Example 16, 1′-{[6-Chloro-1-(2-morpholin-4-yl-2-oxoethyl)-1H-indol-3-yl]carbonyl}spiro[3,1-benzoxazine-4,4′-piperidin]-2(1H)-one] |
| 2050 | O=C1CC2(CCN(C(=O)c3c[nH]c4ccccc34)CC2)c2cc(Br)ccc2N1 [Example 2, 6′-Bromo-1-(1H-indol-3-ylcarbonyl)-1′H-spiro[piperidine-4,4′-quinolin]-2′(3′H)-one] |
| 8 | O=C1Nc2ccccc2C2(CCN(C(=O)c3cn(CC(=O)c4ccc(F)c(F)c4)c4cc(Cl)ccc34)CC2)O1 [Example 13, 1′-({6-Chloro-1-[2-(3,4-difluorophenyl)-2-oxoethyl]-1H-indol-3-yl}carbonyl)spiro[3,1-benzoxazine-4,4′-piperidin]-2(1H)-one] |
| 136 | O=C1Nc2ccccc2C2(CCN(C(=O)c3cn(C(=O)c4cccc(F)c4F)c4cc(Cl)ccc34)CC2)O1 [Example 8, 1′-{[6-Chloro-1-(2,3-difluorobenzoyl)-1H-indol-3-yl]carbonyl}spiro[3,1-benzoxazine-4,4′-piperidin]-2(1H)-one] |
| 10 | CC(C)(C)OC(=O)Cn1cc(C(=O)N2CCC3(CC2)OC(=O)Nc2ccccc23)c2ccc(Cl)cc21 [Example 20, tert-Butyl {6-chloro-3-[(2-oxo-1,2-dihydro-1′H-spiro[3,1-benzoxazine-4,4′-piperidin]-1′-yl)carbonyl]-1H-indol-1-yl}acetate] |
| 28 | CC(C#N)n1cc(C(=O)N2CCC3(CC2)OC(=O)Nc2ccccc23)c2ccc(Cl)cc21 (centres unmarked) [Example 25, 2-{6-Chloro-3-[(2-oxo-1,2-dihydro-1′H-spiro[3,1-benzoxazine-4,4′-piperidin]-1′-yl)carbonyl]-1H-indol-1-yl}propanenitrile] |
| 130 | O=C1Nc2ccccc2C2(CCN(C(=O)c3cn(-c4cc(F)cc(F)c4)c4cc(Cl)ccc34)CC2)O1 [Example 5, 1′-{[6-Chloro-1-(3,5-difluorophenyl)-1H-indol-3-yl]carbonyl}spiro[3,1-benzoxazine-4,4′-piperidin]-2(1H)-one] |
| 5 | O=C1Nc2ccccc2C2(CCN(C(=O)c3cn(Cc4cccc(F)c4)c4cc(Cl)ccc34)CC2)O1 [Example 11, 1′-{[6-Chloro-1-(3-fluorobenzyl)-1H-indol-3-yl]carbonyl}spiro[3,1-benzoxazine-4,4′-piperidin]-2(1H)-one] |
| 8 | O=C1Nc2ccccc2C2(CCN(C(=O)c3cn(CC(=O)c4ccccn4)c4cc(Cl)ccc34)CC2)O1 [Example 26, 1′-{[6-Chloro-1-(2-oxo-2-pyridin-2-ylethyl)-1H-indol-3-yl]carbonyl}spiro[3,1-benzoxazine-4,4′-piperidin]-2(1H)-one] |
| 310 | O=C1Nc2ccc(Cl)cc2C2(CCN(C(=O)c3c[nH]c4cc(Cl)ccc34)CC2)O1 [Example 4, 6-Chloro-1′-[(6-chloro-1H-indol-3-yl)carbonyl]spiro[3,1-benzoxazine-4,4′-piperidin]-2(1H)-one] |
| 402 | CN(C)CCN1C(=O)OC2(CCN(C(=O)c3c[nH]c4cc(Cl)ccc34)CC2)c2cc(Cl)ccc21 [Example 3, 6-Chloro-1′-[(6-chloro-1H-indol-3-yl)carbonyl]-1-[2-(dimethylamino)ethyl]spiro[3,1-benzoxazine-4,4′-piperidin]-2(1H)-one] |
| 46 | O=C1Nc2ccccc2C2(CCN(C(=O)c3cn(C(=O)N4CCCCC4)c4cc(Cl)ccc34)CC2)O1 [Example 19, 1′-{[6-Chloro-1-(piperidin-1-ylcarbonyl)-1H-indol-3-yl]carbonyl}spiro[3,1-benzoxazine-4,4′-piperidin]-2(1H)-one] |
| 32 | O=C1Nc2ccccc2C2(CCN(C(=O)c3c[nH]c4cc(Cl)ccc34)CC2)O1 [Example 1, 1′-[(6-Chloro-1H-indol-3-yl)carbonyl]spiro[3,1-benzoxazine-4,4′-piperidin]-2(1H)-one] |
| 117 | O=C1Nc2ccccc2C2(CCN(C(=O)c3cn(C(=O)c4ccccc4F)c4cc(Cl)ccc34)CC2)O1 [Example 7, 1′-{[6-Chloro-1-(2-fluorobenzoyl)-1H-indol-3-yl]carbonyl}spiro[3,1-benzoxazine-4,4′-piperidin]-2(1H)-one] |
| 10 | N#CCCn1cc(C(=O)N2CCC3(CC2)OC(=O)Nc2ccccc23)c2ccc(Cl)cc21 [Example 24, 3-{6-Chloro-3-[(2-oxo-1,2-dihydro-1′H-spiro[3,1-benzoxazine-4,4′-piperidin]-1′-yl)carbonyl]-1H-indol-1-yl}propanenitrile] |
| 29 | Cc1oc(-c2ccccc2)nc1C(=O)Cn1cc(C(=O)N2CCC3(CC2)OC(=O)Nc2ccccc23)c2ccc(Cl)cc21 [Example 27, 1′-({6-Chloro-1-[2-(5-methyl-2-phenyl-1,3-oxazol-4-yl)-2-oxoethyl]-1H-indol-3-yl}carbonyl)spiro[3,1-benzoxazine-4,4′-piperidin]-2(1H)-one] |
| 2 | O=C1Nc2ccccc2C2(CCN(C(=O)c3cn(CC(=O)c4ccccc4F)c4cc(Cl)ccc34)CC2)O1 [Example 23, 1′-({6-Chloro-1-[2-(2-fluorophenyl)-2-oxoethyl]-1H-indol-3-yl}carbonyl)spiro[3,1-benzoxazine-4,4′-piperidin]-2(1H)-one] |
| 200 | O=C1Nc2ccccc2C2(CCN(C(=O)c3cn(CC(=O)c4cc(F)cc(F)c4)c4cc(Cl)ccc34)CC2)O1 [Example 22, 1′-({6-Chloro-1-[2-(3,5-difluorophenyl)-2-oxoethyl]-1H-indol-3-yl}carbonyl)spiro[3,1-benzoxazine-4,4′-piperidin]-2(1H)-one] |
| 6 | CCN(CC)C(=O)Cn1cc(C(=O)N2CCC3(CC2)OC(=O)Nc2ccccc23)c2ccc(Cl)cc21 [Example 18, 2-{6-Chloro-3-[(2-oxo-1,2-dihydro-1H-spiro[3,1-benzoxazine-4,4′-piperidin]-1′-yl)carbonyl]-1H-indol-1-yl}-N,N-diethylacetamide] |

| SMILES | Ki [nM] |
| --- | --- |
| CNC(=O)Cn1cc(C(=O)N2CCC3(CC2)CNC(=O)c2ccccc23)c2ccc(Cl)cc21 [Example 28, 2-{6-chloro-3-[(1-oxo-2,3-dihydro-1H, 1′H-spiro[isoquinoline-4,4′-piperidin]-1′-yl)carbonyl]-1H-indol-1-yl}-N-methylacetamide] | 166 |
| O=C1Nc2ccccc2C2(CCN(C(=O)c3cn(Cc4cc(F)cc(F)c4)c4cc(Cl)ccc34)CC2)O1 [Example 10, 1′-{[6-Chloro-1-(3,5-difluorobenzyl)-1H-indol-3-yl]carbonyl}spiro[3,1-benzoxazine-4,4′-piperidin]-2(1H)-one] | 3 |
